Assay results: patent publication US20260274832A1, “COMPOUNDS AND THEIR USE IN TREATING CANCER” (ASTRAZENECA AB, priority 2023, published 2026)

Columns and labels:
[1] = biological target: T1, AR (L702H) in LNCaP cells (Homo sapiens, UniProt P10275, L702H/T878A); test: LNCaP Androgen Receptor L702H Imaging Assay (LNCaP cells engineered by CRISPR/Cas9); format: cell-based; details: LNCaP cells with AR L702H mutation, 24 h incubation; for DC50: concentration giving 50% of maximum degradation of AR (L702H) per curve fit; for Dmax: LNCaP; for Dmax / LNCaP AR (L702H) Degradation Dmax: maximum degradation observed, normalized as % of positive control
T1 construct: engineered to introduce the mutation L702H into the AR gene using CRISPR/Cas9; endogenous in cells; host or cells: LNCaP cells edited by CRISPR/Cas9 at the AR gene
Summary of the method: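 CRISPR-engineered LNCaP cells carrying AR L702H were treated 24 h at 37 °C with a 12-point compound dose response (0.3% DMSO), then fixed and immunostained for AR with DRAQ5 nuclear counterstain. Nuclear AR was quantified by imaging, normalized to positive control; DC50 and Dmax came from Hill or bell-shaped fits.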

[2] = biological target: T2, AR (AR-full length) in LNCaP cells (Homo sapiens, UniProt P10275, T878A); test: LNCaP Androgen Receptor Imaging Assay (immunofluorescence of endogenous nuclear AR); format: cell-based; details: 24 h incubation; for DC50: concentration giving 50% of maximum degradation of AR per curve fit, single experiment or average of two or more; for Dmax: LNCaP; for Dmax / LNCaP AR Degradation Dmax: maximum degradation observed, normalized as % of positive control (prior art AR PROTAC at 3 μM)
T2 construct: the prostate cancer cell line LNCaP (expressing AR-full length); endogenous in cells; host or cells: LNCaP
Summary of the method: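 LNCaP cells (12,000/well) received a 12-point compound dose series (0.3% DMSO) for 24 h at 37° C., then were PFA-fixed and stained for AR (AR441) and nuclei (DRAQ5). Nuclear AR was quantified by imaging, normalized to a 3 μM AR PROTAC control; DC50 and Dmax came from Hill/bell curve fits.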

T2 sequence (P10275 whole entry T878A): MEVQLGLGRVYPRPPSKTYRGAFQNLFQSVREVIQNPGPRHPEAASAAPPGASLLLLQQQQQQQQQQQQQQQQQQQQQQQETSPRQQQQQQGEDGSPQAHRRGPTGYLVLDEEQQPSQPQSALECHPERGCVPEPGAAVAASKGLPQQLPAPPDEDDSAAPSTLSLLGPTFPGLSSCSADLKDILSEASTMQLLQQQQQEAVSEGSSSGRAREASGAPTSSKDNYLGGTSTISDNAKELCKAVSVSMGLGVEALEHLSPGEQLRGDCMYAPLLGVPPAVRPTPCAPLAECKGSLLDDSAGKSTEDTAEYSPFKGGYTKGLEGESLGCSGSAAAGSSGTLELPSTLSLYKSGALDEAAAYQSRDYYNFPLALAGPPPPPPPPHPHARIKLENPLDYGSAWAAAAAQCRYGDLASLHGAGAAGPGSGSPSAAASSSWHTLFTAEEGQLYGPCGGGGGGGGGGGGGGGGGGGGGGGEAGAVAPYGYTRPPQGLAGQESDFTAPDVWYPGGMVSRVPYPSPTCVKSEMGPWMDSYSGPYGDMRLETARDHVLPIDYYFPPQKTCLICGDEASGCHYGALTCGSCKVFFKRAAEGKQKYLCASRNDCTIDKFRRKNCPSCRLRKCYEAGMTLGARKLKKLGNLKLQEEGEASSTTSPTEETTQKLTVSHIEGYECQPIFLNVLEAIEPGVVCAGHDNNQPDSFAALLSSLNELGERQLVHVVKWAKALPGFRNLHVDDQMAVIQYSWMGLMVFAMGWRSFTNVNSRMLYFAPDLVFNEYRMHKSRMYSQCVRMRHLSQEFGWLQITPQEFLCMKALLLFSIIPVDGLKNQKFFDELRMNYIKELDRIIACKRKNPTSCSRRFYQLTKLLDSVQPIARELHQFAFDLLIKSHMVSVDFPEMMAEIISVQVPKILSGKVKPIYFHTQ
T2 sequence (Q96SW2 whole entry partner): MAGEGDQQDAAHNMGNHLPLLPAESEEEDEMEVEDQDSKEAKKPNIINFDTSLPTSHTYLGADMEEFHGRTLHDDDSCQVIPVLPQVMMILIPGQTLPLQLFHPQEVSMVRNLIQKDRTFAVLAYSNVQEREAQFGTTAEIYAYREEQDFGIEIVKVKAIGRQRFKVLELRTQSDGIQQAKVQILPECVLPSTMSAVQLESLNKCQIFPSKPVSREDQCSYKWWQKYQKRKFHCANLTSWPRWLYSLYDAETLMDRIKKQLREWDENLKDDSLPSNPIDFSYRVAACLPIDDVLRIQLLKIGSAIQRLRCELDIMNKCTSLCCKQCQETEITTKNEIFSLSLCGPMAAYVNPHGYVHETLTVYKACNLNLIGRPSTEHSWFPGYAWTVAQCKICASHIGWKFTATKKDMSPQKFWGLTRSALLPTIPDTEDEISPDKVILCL
T1 sequence (P10275 whole entry L702H/T878A): as the sequence (P10275 whole entry T878A) above, with L702H counted along it
T1 sequence (Q96SW2 whole entry partner): as the sequence (Q96SW2 whole entry partner) above

SMILES | DC50 [1] [nM] | Dmax [1] [%] | DC50 [2] [nM] | Dmax [2] [%] | LNCaP AR (L702H) Degradation Dmax [1] [%] | LNCaP AR Degradation Dmax [2] [%]
N#Cc1c[nH]c2c(N3CCC(c4ccc(OCCCCN5CCC(n6ccc7c(N8CCC(=O)NC8=O)cccc76)CC5)cc4)CC3)ccc(Cl)c12 [Example 46, 4-Chloro-7-{4-[4-(4-{4-[4-(2,4-dioxo-1,3-diazinan-1-yl)-1H-indol-1-yl]piperidin-1-yl}butoxy)phenyl]piperidin-1-yl}-1H-indole-3-carbonitrile] | 12 | 98 | 4 | 101 |  | 
N#Cc1c[nH]c2c(N3CCC(c4ccc(N5CCO[C@H](CN6CCN(c7ccc8c(c7)CN(C7CCC(=O)NC7=O)C8=O)CC6)C5)cc4)CC3)ccc(F)c12 (stereo partly drawn) [Example 126, 7-(4-{4-[(2R)-2-({4-[2-(2,6-dioxopiperidin-3-yl)-1-oxo-2,3-dihydro-1H-isoindol-5-yl]piperazin-1-yl}methyl)morpholin-4-yl]phenyl}piperidin-1-yl)-4-fluoro-1H-indole-3-carbonitrile] | 2 | 107 | 4 | 98 |  | 
Cn1c(C2CCN(CC3CCN(c4ccc(C5CCN(c6ccc(F)c7c(C#N)n[nH]c67)CC5)cc4)CC3)CC2)cc2ccc(N3CCC(=O)NC3=O)cc21 [Example 140, 7-(4-{4-[4-({4-[6-(2,4-Dioxo-1,3-diazinan-1-yl)-1-methyl-1H-indol-2-yl]piperidin-1-yl}methyl)piperidin-1-yl]phenyl}piperidin-1-yl)-4-fluoro-1H-indazole-3-carbonitrile] | 14 | 56 | 7 | 88 |  | 
Cn1c(C2CCN(CC3CCN(c4ccc([C@@H]5CCCN(c6ccc(Cl)c7c(C#N)c[nH]c67)C5)cc4)CC3)CC2)cc2ccc(N3CCC(=O)NC3=O)cc21 [Example 13, 4-Chloro-7-[(3S)-3-{4-[4-({4-[6-(2,4-dioxo-1,3-diazinan-1-yl)-1-methyl-1H-indol-2-yl]piperidin-1-yl}methyl)piperidin-1-yl]phenyl}piperidin-1-yl]-1H-indole-3-carbonitrile] | 6 | 109 | 7 | 107 |  | 
Cc1ccc(N2CCC(c3ccc(OCCCCN4CCN(c5cc6c(cc5F)C(=O)N(C5CCC(=O)NC5=O)C6=O)CC4)cc3)CC2)c2[nH]cc(C#N)c12 (stereo not shown) [Example 50, 7-{4-[4-(4-{4-[2-(2,6-Dioxopiperidin-3-yl)-6-fluoro-1,3-dioxo-2,3-dihydro-1H-isoindol-5-yl]piperazin-1-yl}butoxy)phenyl]piperidin-1-yl}-4-methyl-1H-indole-3-carbonitrile] | 769 | 94 | 137 | 98 |  | 
N#Cc1c[nH]c2c(N3CCC(c4ccc(CN5CCN(CC6CCN(c7ccc8c(c7)CN(C7CCC(=O)NC7=O)C8=O)CC6)CC5)cc4)CC3)ccc(F)c12 (stereo not shown) [Example 107, 7-[4-(4-{[4-({1-[2-(2,6-Dioxopiperidin-3-yl)-1-oxo-2,3-dihydro-1H-isoindol-5-yl]piperidin-4-yl}methyl)piperazin-1-yl]methyl}phenyl)piperidin-1-yl]-4-fluoro-1H-indole-3-carbonitrile] | 300 | 107 | 6 | 93 |  | 

Next, values leading:

DC50 [1] [nM] | Dmax [1] [%] | DC50 [2] [nM] | Dmax [2] [%] | LNCaP AR (L702H) Degradation Dmax [1] [%] | LNCaP AR Degradation Dmax [2] [%] | SMILES
4 |  | 3 |  | 102 | 100 | COc1cc(N2CCN(CC3CCN(c4ccc(C5CCN(c6ccc(Cl)c7c(C#N)c[nH]c67)CC5)cc4)CC3)CC2)cc2c1C(=O)N(C1CCC(=O)NC1=O)C2 (single isomer, unassigned) [Example 17, 4-Chloro-7-[4-(4-{4-[(4-{2-[(3S*)-2,6-dioxopiperidin-3-yl]-7-methoxy-1-oxo-2,3-dihydro-1H-isoindol-5-yl}piperazin-1-yl)methyl]piperidin-1-yl}phenyl)piperidin-1-yl]-1H-indole-3-carbonitrile]
8 | 94 | 5 | 95 |  |  | COc1nc(N2CCN(CCC3CCN(c4ccc(C5CCN(c6ccc(Cl)c7c(C#N)c[nH]c67)CC5)cc4)CC3)CC2)cc2c1C(=O)N(C1CCC(=O)NC1=O)C2 (stereo not shown) [Example 87, 4-Chloro-7-(4-{4-[4-(2-{4-[2-(2,6-dioxopiperidin-3-yl)-4-methoxy-3-oxo-2,3-dihydro-1H-pyrrolo[3,4-c]pyridin-6-yl]piperazin-1-yl}ethyl)piperidin-1-yl]phenyl}piperidin-1-yl)-1H-indole-3-carbonitrile]
9 | 93 | 3 | 95 |  |  | N#Cc1c[nH]c2c(N3CCC(c4cnc(N5CCC(CN6CCN(c7ccc8c(c7)CN(C7CCC(=O)NC7=O)C8=O)CC6)CC5)nc4)CC3)ccc(Cl)c12 (stereo not shown) [Example 124, 4-Chloro-7-(4-{2-[4-({4-[2-(2,6-dioxopiperidin-3-yl)-1-oxo-2,3-dihydro-1H-isoindol-5-yl]piperazin-1-yl}methyl)piperidin-1-yl]pyrimidin-5-yl}piperidin-1-yl)-1H-indole-3-carbonitrile]
25 | 65 | 6 | 94 |  |  | COc1nc(N2CCN(CC3CCN(c4ccc(C5CCN(c6ccc(Cl)c7c(C#N)c[nH]c67)CC5)nc4)CC3)CC2)cc2c1C(=O)N(C1CCC(=O)NC1=O)C2 (stereo not shown) [Example 61, 4-Chloro-7-(4-{5-[4-({4-[2-(2,6-dioxopiperidin-3-yl)-4-methoxy-3-oxo-2,3-dihydro-1H-pyrrolo[3,4-c]pyridin-6-yl]piperazin-1-yl}methyl)piperidin-1-yl]pyridin-2-yl}piperidin-1-yl)-1H-indole-3-carbonitrile]
24 | 85 | 9 | 97 |  |  | COc1cc(N2CCN(CC3CCN(c4ccc(C5CCN(c6ccc(C)c7c(C#N)c[nH]c67)CC5)cc4)CC3)CC2)cc2c1C(=O)N(C1CCC(=O)NC1=O)C2 (stereo not shown) [Example 15, 7-(4-{4-[4-({4-[2-(2,6-Dioxopiperidin-3-yl)-7-methoxy-1-oxo-2,3-dihydro-1H-isoindol-5-yl]piperazin-1-yl}methyl)piperidin-1-yl]phenyl}piperidin-1-yl)-4-methyl-1H-indole-3-carbonitrile]
7 |  | 5 |  | 102 | 102 | COc1nc(N2CCN(CC3CCN(c4ccc(C5CCN(c6ccc(Cl)c7c(C#N)c[nH]c67)CC5)cc4)CC3)CC2)cc2c1C(=O)N(C1CCC(=O)NC1=O)C2 (single isomer, unassigned) [Example 36, 4-Chloro-7-[4-(4-{4-[(4-{2-[(3S*)-2,6-dioxopiperidin-3-yl]-4-methoxy-3-oxo-2,3-dihydro-1H-pyrrolo[3,4-c]pyridin-6-yl}piperazin-1-yl)methyl]piperidin-1-yl}phenyl)piperidin-1-yl]-1H-indole-3-carbonitrile]
21 | 92 | 14 | 91 |  |  | Cn1c(=O)n(C2CCC(=O)NC2=O)c2cccc(N3CCN(CC4CCN(c5ccc(C6CCN(c7ccc(Cl)c8c(C#N)c[nH]c78)CC6)cc5)CC4)CC3)c21 (stereo not shown) [Example 72, 4-Chloro-7-(4-{4-[4-({4-[1-(2,6-dioxopiperidin-3-yl)-3-methyl-2-oxo-2,3-dihydro-1H-benzimidazol-4-yl]piperazin-1-yl}methyl)piperidin-1-yl]phenyl}piperidin-1-yl)-1H-indole-3-carbonitrile]
